PMC6995600, “Effects of Synergistic Inhibition on α-glucosidase by Phytoalexins in Soybeans” (Biomolecules, 2019)
Like-named read-outs stand apart in the source and are kept apart here.

Legend:
[1] = molecular target: T1, α-Glucosidase (from baker’s yeast) (Saccharomyces cerevisiae, UniProt P53341); experiment: biochemical
T1 construct: purchased Sigma-Aldrich #63231-63-0
Procedure: The activity of α-glucosidase was measured as described previously, with slight modifications. In brief, sodium phosphate buffer (0.1 M) was adjusted to 0.1 N HCl to pH 7.0 with a pH meter (Thermo Fisher Scientific Inc., Waltham, MA, USA). Solutions of pNPG (10 mM) and α-glucosidase (1 U/mL) were solubilized in 0.1 M sodium phosphate buffer (pH 7.0). All reagents were prepared shortly before use and warmed to 37 °C in a water bath (Il-shin Biobase, Pocheon, Korea). […] The substrate, pNPG (N1377, Sigma), was added into each well to a final concentration of 1 mM in a total volume of 200 μL, and 100 μL of α-glucosidase (1 U/mL) per well was then added. […] The absorbance values were plotted against time, and the rate (velocity) of product generation (α-glucosidase activity) was calculated from the linear range of the graph.

[2] = molecular target: T1, α-Glucosidase (from baker’s yeast); experiment: Enzyme kinetics for α-glucosidase (Michaelis–Menten, Lineweaver–Burk, Dixon plot); format: biochemical; conditions: for Mode of Inhibition: Lineweaver–Burk plots
Procedure: The enzyme reaction was performed according to the above reaction conditions with polyphenols at various concentrations (1–30 μM). pNPG (1 mM) was added with polyphenols in 96-well plates, and α-glucosidase (1 U/mL) was added to initiate the enzyme reaction. The absorbances for each concentration of pNPG were then obtained by spectrophotometry (Victor3, PerkinElmer, Waltham, MA, USA). The inhibition modes of the polyphenols were determined using Michaelis–Menten and Lineweaver–Burk equations [23, 24]. The inhibition constant Ki is an indication of the potency of an inhibitor and equals the concentration required to produce half-maximal inhibition and can be determined by a Dixon plot. […] The αKi value is the inhibitor constant when the inhibitor (I) occupies the enzyme–substrate (ES) complex.
To define the mode of inhibition of the polyphenols, enzyme kinetics were performed with designated concentrations of pNPG. The maximum velocity (Vmax) for α-glucosidase was calculated from the nonlinear regression curve with five different concentrations of substrate (Figure 2). To determine the inhibition modes, Lineweaver–Burk plots were constructed for each of the inhibition modes, and the most suitable mode was selected using SigmaPlot 10.0 software.
Meanwhile, the inhibitor constant Ki indicates the potency of an inhibitor and is expressed as the concentration required to produce half-maximal inhibition and is determined by a Dixon plot. The initial slope v was determined for each concentration of each polyphenol. The reciprocal velocity (1/v) versus the […] (for 0.25, 0.5, 1, and 2 mM pNPG) was plotted. A single regression line for each concentration of the substrate was obtained, and Ki was calculated from the intersection of the four lines.

[3] = molecular target: T1, α-Glucosidase (from baker’s yeast); experiment: biochemical; remark: listed apart in the source
Procedure: Synergistic effects on α-glucosidase inhibition were measured using the same methods as above. […] We calculated the IC50 values of each polyphenol and the combinations, and we used the statistical differences of these values to assess synergistic effects.

[4] = test system: α-glucosidase; set-up: method as in PMID 24083955; conditions: 2 μM; cited from earlier work
[5] = pNPG 1 mM, pH 7.0, 37 °C, read-out: half-maximal inhibitory concentrations (IC50)
[6] = Substrate PNPG 0.125 mM, read-out: IC50
[7] = Substrate PNPG 0.25 mM, read-out: IC50
[8] = Substrate PNPG 0.5 mM, read-out: IC50
[9] = Substrate PNPG 1 mM, read-out: IC50

T1 sequence (P53341 whole entry): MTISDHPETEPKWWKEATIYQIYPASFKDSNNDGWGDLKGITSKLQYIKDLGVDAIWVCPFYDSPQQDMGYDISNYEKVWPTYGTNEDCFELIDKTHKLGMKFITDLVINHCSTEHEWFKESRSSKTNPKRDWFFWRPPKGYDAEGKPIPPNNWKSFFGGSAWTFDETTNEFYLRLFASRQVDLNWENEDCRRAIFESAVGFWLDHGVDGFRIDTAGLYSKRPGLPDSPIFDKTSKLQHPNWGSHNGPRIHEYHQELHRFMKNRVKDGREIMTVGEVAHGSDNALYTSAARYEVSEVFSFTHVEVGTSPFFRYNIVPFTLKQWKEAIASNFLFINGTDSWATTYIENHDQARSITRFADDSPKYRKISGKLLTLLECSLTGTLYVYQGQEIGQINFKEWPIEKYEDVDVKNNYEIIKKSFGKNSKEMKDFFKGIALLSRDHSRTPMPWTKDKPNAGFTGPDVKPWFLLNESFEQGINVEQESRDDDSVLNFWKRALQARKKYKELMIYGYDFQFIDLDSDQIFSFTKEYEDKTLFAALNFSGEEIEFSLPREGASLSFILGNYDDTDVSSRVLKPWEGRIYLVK

O=c1c(-c2ccc(O)cc2)coc2cc(O)ccc12 [Daidzein, daidzein]
IC50 [1]: 20.2 ± 6.17 µM | Mode of Inhibition [2]: Uncompetitive | IC50 ([3]; IC50, Substrate PNPG 0.125 mM): 59.2 ± 6.1 µM | IC50 ([3]; IC50, Substrate PNPG 0.25 mM): 27.6 ± 2.93 µM | IC50 ([3]; IC50, Substrate PNPG 0.5 mM): 23.2 ± 1.04 µM | IC50 ([3]; IC50, Substrate PNPG 1 mM): 20.5 ± 1.82 µM

CC1(C)C=Cc2c(ccc3c2OC[C@@]2(O)c4ccc(O)cc4O[C@@H]32)O1 [Glyceollin, glyceollin]
IC50 [1, 5]: 13.2 ± 2.31 µM | Ki [2]: 19 ± 4.45 µM | Mode of Inhibition [2]: Competitive | Mode of Inhibition ([2]; listed as glyceollin): competitive inhibition | IC50 [3, 6]: 16.6 ± 3.25 µM | IC50 [3, 7]: 16.57 ± 0.15 µM | IC50 [3, 8]: 19.1 ± 0.96 µM | IC50 [3, 9]: 33.2 ± 3.97 µM

O=c1c2cc(O)ccc2oc2cc(O)cc(O)c12 [1,3,7-trihydroxyxanthone]
inhibition [4]: approximately 15%

O=c1cc(-c2ccc(O)c(O)c2)oc2cc(O)cc(O)c12 [Luteolin, luteolin]
IC50 [1, 5]: 11.9 ± 1.63 µM | Ki [2]: 16.8 ± 9.6 µM | Mode of Inhibition [2]: Mixed | IC50 [3, 6]: 18.6 ± 1.2 µM | IC50 [3, 7]: 14.82 ± 0.01 µM | IC50 [3, 8]: 15.4 ± 1.99 µM | IC50 [3, 9]: 19.5 ± 1.59 µM

C[C@H]1O[C@H](O[C@H]2[C@H](O)[C@@H](O)[C@@H](O[C@H]3[C@H](O)[C@@H](O)C(O)O[C@@H]3CO)O[C@@H]2CO)[C@H](O)[C@@H](O)[C@@H]1N[C@H]1C=C(CO)[C@@H](O)[C@H](O)[C@H]1O (some centres unmarked) [Acarbose, acarbose, reference compound]
Mode of Inhibition [2]: Competitive
